Test results taken from article PMC10683482, “Offsetting Low-Affinity Carbohydrate Binding with Covalency to Engage Sugar-Specific Proteins for Tumor-Immune Proximity Induction” (ACS Central Science, 2023).

Test system: human IgG (polyclonal antirhamnose antibodies)
Experiment: BLI monitoring of covalent reaction with human IgG (Figure 4B)
Assay type: binding
Settings: 10 μM cARM, 230 μM human IgG, up to 25 h
Text: The design of rhamnose-SO2F-cARM was again supported by in-silico docking and predicted to preorganize electrophilic SO2F proximal to lysine 104 and serine 53 of the anti-23F heavy chain as well as tyrosine 32 of the light chain (Figure S3). To evaluate the capacity of rhamnose-SO2F-cARMs to specifically label polyclonal antirhamnose antibodies, a tool cARM with a biotin TBD was synthesized (compound 12, Figure 4A, Scheme S5). As an orthogonal kinetics assay to fluorescent gels, tool compound 12 labeling kinetics was first evaluated using an in-house BLI assay and compared to acyl imidazole cARM and ARM analogs. […] Solutions were immediately loaded onto streptavidin probes (Figure 4B, Figure S8). In this assay, rhamnose competition blocks noncovalent antirhamnose recruitment, thus the signal amplitude is directly proportional to the covalently labeled antibody product.
Figure 4 Selectivity and kinetic analysis of optimized Rha-SO2F-cARMs A. Chemical structures of tool compounds used in this study. B. cARM 12 (10 μM) was incubated with human IgG or BSA (230 μM) then diluted 8× with 100 mM competitor rhamnose spiked kinetics buffer and loaded onto streptavidin probes in BLI. The association plateau was plotted against time to yield the % labeled vs time covalent labeling curve C. Kinetic fluorescence SDS-PAGE assay similar to that in Figure 2D. […]

C[C@@H]1O[C@@H](OCc2cn(CCc3cn(C(=O)OCCOCCOCCOCCOCCOCCOCCOCCNC(=O)CCCC[C@@H]4SC[C@@H]5NC(=O)N[C@@H]54)cn3)nn2)[C@H](O)[C@H](O)[C@H]1O [compound 4]
progress of labeling reaction: still in the linear phase of the reaction
